Experimental findings from ChEMBL document CHEMBL1131855, “Nonpeptidic SH2 inhibitors of the tyrosine kinase ZAP-70” (Bioorg Med Chem Lett, 1999) are described below.

Assay [1] addresses Proto-oncogene tyrosine-protein kinase Src (Homo sapiens, UniProt P12931). Briefly: Affinity for Src protein tyrosine kinase.
Assay [2] has as its target Tyrosine-protein kinase SYK (Homo sapiens, UniProt P43405). Briefly: Affinity for Syk protein tyrosine kinase.
For assay [3], the target named is T1, Tyrosine-protein kinase ZAP-70 (Homo sapiens, UniProt P43403).
T1 sequence (P43403 whole entry): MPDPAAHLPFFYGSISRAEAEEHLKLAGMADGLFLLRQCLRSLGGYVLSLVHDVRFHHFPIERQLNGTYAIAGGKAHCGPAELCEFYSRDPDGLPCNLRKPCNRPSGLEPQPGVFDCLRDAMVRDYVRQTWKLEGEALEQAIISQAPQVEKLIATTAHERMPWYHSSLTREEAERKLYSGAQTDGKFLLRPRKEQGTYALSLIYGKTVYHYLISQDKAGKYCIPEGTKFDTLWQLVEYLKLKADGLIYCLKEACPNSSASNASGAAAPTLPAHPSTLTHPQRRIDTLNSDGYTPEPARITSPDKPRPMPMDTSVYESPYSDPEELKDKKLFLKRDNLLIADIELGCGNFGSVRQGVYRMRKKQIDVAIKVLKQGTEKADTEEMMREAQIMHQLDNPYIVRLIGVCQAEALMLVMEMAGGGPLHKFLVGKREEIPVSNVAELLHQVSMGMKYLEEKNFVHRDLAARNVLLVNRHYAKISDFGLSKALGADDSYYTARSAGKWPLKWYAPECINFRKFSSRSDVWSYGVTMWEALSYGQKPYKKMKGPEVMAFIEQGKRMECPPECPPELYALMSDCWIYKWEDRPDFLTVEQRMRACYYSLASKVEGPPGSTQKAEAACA
In words: Affinity for Zeta-chain (TCR) associated protein kinase 70 kDa (ZAP70).

Each structure is given as a SMILES string.

Proto-oncogene tyrosine-protein kinase Src, sequence (P12931 2-536 limits assumed): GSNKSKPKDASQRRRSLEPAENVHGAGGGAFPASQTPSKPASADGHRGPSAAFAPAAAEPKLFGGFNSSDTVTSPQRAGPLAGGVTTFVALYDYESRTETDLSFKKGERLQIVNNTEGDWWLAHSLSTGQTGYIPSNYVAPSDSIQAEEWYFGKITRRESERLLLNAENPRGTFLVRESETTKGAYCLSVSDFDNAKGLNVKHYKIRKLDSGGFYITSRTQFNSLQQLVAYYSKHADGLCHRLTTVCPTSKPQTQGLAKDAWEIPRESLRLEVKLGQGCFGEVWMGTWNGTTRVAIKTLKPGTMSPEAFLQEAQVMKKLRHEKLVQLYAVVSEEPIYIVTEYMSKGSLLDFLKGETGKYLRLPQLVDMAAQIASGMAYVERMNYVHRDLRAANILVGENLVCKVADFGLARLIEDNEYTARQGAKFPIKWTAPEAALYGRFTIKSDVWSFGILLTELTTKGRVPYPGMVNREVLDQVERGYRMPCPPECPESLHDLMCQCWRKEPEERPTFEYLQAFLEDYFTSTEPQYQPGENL

In general, IC50 refers to the concentration that inhibits the measured activity by half. A lower IC50 goes with higher potency. In the case of `C[C@H](NC(=O)[C@@H](CC(=O)O)Cc1ccc(OP(=O)(O)O)cc1)c1nc(Cc2ccc(Cl)c(Cl)c2)no1`, the results for the IC50 in assay [1] and in assay [2] were 53 µM and above 500 µM, respectively.

With `O=C(O)C[C@@H](Cc1ccc(OP(=O)(O)O)cc1)C(=O)N[C@@H](CO)c1nc(Cc2ccc(Cl)c(Cl)c2)no1`, the IC50 in assay [1] is 54 µM; in assay [2], above 500 µM.

In the case of `CC(=O)N[C@@H](Cc1ccc(OP(=O)(O)O)cc1)C(=O)N[C@@H](C)c1nc(Cc2ccc(C(F)(F)F)cc2)no1`, inhibition in assay [1] was half-maximal at 72 µM (IC50).

Take `CC(=O)N[C@@H](Cc1ccc(OP(=O)(O)O)cc1)C(=O)N[C@@H](C)c1nc(Cc2ccc(Cl)c(Cl)c2)no1`: half-maximal inhibition in assay [1] (IC50) was put at 210 µM.

With `C[C@H](NC(=O)Nc1cccc2cc(OP(=O)(O)O)ccc12)c1nc(Cc2ccc(Cl)c(Cl)c2)no1`, the IC50 in assay [1] worked out at 198 µM; in assay [2] it was 310 µM.

Consider `C[C@H](NC(=O)[C@H](Cc1ccc(OP(=O)(O)O)cc1)CS(=O)(=O)C(C)(C)C)c1nc(Cc2ccc(C(F)(F)F)cc2)no1`, for which the figures for the IC50 in assay [1] and in assay [2] were 205 µM and above 500 µM, respectively.

`C[C@H](NC(=O)c1cc2cc(OP(=O)(O)O)ccc2[nH]1)c1nc(Cc2ccc(Cl)c(Cl)c2)no1`: the figures for the concentration for half-maximal inhibition (IC50) in assay [1] and in assay [2] were 81 µM and 434 µM, respectively.

`C[C@H](NC(=O)CCc1ccc(OP(=O)(O)O)cc1)c1nc(Cc2ccc(Cl)c(Cl)c2)no1`: the IC50 in assay [1] is 459 µM; in assay [3], 198 µM; in assay [2] it was above 500 µM.

As to `C[C@H](NC(=O)[C@@H](CC(=O)O)Cc1ccc(OP(=O)(O)O)cc1)c1nc(Cc2ccc(C(F)(F)F)cc2)no1`, the IC50 in assay [1] is 102 µM; in assay [2], above 500 µM.
